Among the data in PubChem BioAssay (NCI) are GI50 and TGI values, retold here.

Values joined by “and” are separate entries in the source; they are usually repeats but may differ in a detail not shown here. Equal entries are not always repeated.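 Five compound concentrations were applied to cells in 96-well plates for 48 hours; endpoints were derived by simple linear interpolation of the resulting dose-response curve. GI50 marks 50% less growth. TGI marks complete inhibition of growth.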 Bounds are passed on as bounds.

Test systems include NCI-H460 lung; A498 renal; OVCAR-4 ovarian; NCI-H522 lung; SK-MEL-5 melanoma; MOLT-4 leukemia; HS 578T breast; NCI/ADR-RES ovarian; MDA-MB-231 breast; SNB-75 CNS.
Common to all, as to experiment: growth of human tumour cells (NCI), 48 h

As for `C=C1COC(O)(C2OCOC(C3CC(=O)NC(=O)C3)C2O)C1C` (stereo unspecified), the GI50 with NCI-H460 lung is 0.0107 µM; with NCI-H522 lung, 0.00201 µM; in the assay with SK-MEL-5 melanoma, 0.00166 µM; in the assay on MOLT-4 leukemia, 0.00124 µM; with HS 578T breast, 0.00428 µM; in the assay with SNB-75 CNS it was 0.00332 µM. Also, the TGI in the assay on NCI-H460 lung is 0.18 µM and 0.172 µM; with A498 renal, 0.0052 µM and 0.00554 µM; with OVCAR-4 ovarian it was 0.0181 µM and 0.0242 µM; in the assay on NCI-H522 lung it was 0.00684 µM and 0.00593 µM and 0.0137 µM; in the assay with SK-MEL-5 melanoma, 0.00459 µM and 0.00385 µM; in the assay with MOLT-4 leukemia it was 0.00804 µM and 0.00522 µM. Also, the TGI with HS 578T breast is 0.0265 µM; in the assay with NCI/ADR-RES ovarian, 0.163 µM; with MDA-MB-231 breast, 0.0328 µM; in the assay on SNB-75 CNS it was 0.0336 µM and 0.0195 µM.
On to `O=c1c2cccc(F)c2sc2c(N3CCNCC3)nc3ccccc3c12`, for which the GI50 in the assay on NCI-H460 lung is 1.02 µM; with A498 renal it was 1.92 µM; in the assay on OVCAR-4 ovarian, 1.64 µM; with NCI-H522 lung it was 1.45 µM; in the assay on SK-MEL-5 melanoma it was 1.69 µM; in the assay on MOLT-4 leukemia it was 0.449 µM. Moreover, the GI50 in the assay on HS 578T breast is 1.62 µM; in the assay with NCI/ADR-RES ovarian, 1.6 µM; in the assay with MDA-MB-231 breast, 1.61 µM; with SNB-75 CNS, 1.16 µM. The TGI in the assay with NCI-H460 lung was 2.34 µM; with A498 renal, 8.51 µM; in the assay on OVCAR-4 ovarian, 3.08 µM; in the assay on NCI-H522 lung it was 3.18 µM; with SK-MEL-5 melanoma, 3.08 µM; in the assay with MOLT-4 leukemia it was 1.71 µM. Further, the TGI came out at 3.66 µM with HS 578T breast, 3.21 µM in the assay on NCI/ADR-RES ovarian, 3.1 µM with MDA-MB-231 breast and 2.41 µM in the assay on SNB-75 CNS.
Regarding `CCCCCCC/C=C/[C@H]1O[C@]2(O)C(=O)C=C3C[C@@H](O[C@@H]4O[C@H](CO)[C@@H](O)C(O)[C@@H]4O)C[C@@H]3[C@H]2C=C1C` (stereo partly specified), the GI50 was 6.61 µM in the assay on NCI-H460 lung; 4.41 µM in the assay on A498 renal; 2.75 µM with OVCAR-4 ovarian; 0.664 µM in the assay on NCI-H522 lung; 4.31 µM in the assay on SK-MEL-5 melanoma; 0.853 µM in the assay with MOLT-4 leukemia. For the same molecule, the GI50 is 5.5 µM in the assay with HS 578T breast, 1.26 µM in the assay on NCI/ADR-RES ovarian, 1.2 µM in the assay on MDA-MB-231 breast and 1.24 µM with SNB-75 CNS. The TGI with NCI-H460 lung was found to be 24.3 µM; with A498 renal it was 9.13 µM; with OVCAR-4 ovarian it was 7.83 µM; with NCI-H522 lung it was 1.81 µM; in the assay with SK-MEL-5 melanoma, 8.53 µM; with MOLT-4 leukemia, 2.51 µM. Further, the TGI with HS 578T breast came to 28.3 µM; in the assay with NCI/ADR-RES ovarian it was 14 µM; with MDA-MB-231 breast, 5.53 µM; in the assay on SNB-75 CNS, 5.93 µM.
For `Clc1cc2c(nn1)Nc1ccccc1S2`, the GI50 in the assay on NCI-H460 lung, in the assay with A498 renal, in the assay on OVCAR-4 ovarian, in the assay on NCI-H522 lung, with SK-MEL-5 melanoma and with MOLT-4 leukemia was above 100 µM in each case. Besides, the GI50 was 38.4 µM in the assay on HS 578T breast, above 100 µM in the assay with NCI/ADR-RES ovarian, above 100 µM in the assay on MDA-MB-231 breast and above 100 µM in the assay on SNB-75 CNS. Besides, the TGI in the assay on NCI-H460 lung, with A498 renal, in the assay on OVCAR-4 ovarian, in the assay with NCI-H522 lung, with SK-MEL-5 melanoma and in the assay on MOLT-4 leukemia was above 100 µM in each case. Besides, the TGI with HS 578T breast, in the assay with NCI/ADR-RES ovarian, with MDA-MB-231 breast and with SNB-75 CNS was above 100 µM throughout.
Turning to `CC(=O)c1ccc(Nc2nc(Nc3ccc(F)cc3)nc(Nc3ccc(F)cc3)n2)cc1`, the GI50 in the assay with NCI-H460 lung was 8.65 µM; in the assay with A498 renal, 4.69 µM; in the assay on OVCAR-4 ovarian, 10.9 µM; with NCI-H522 lung, 10.4 µM; in the assay with SK-MEL-5 melanoma, 7.07 µM; in the assay on MOLT-4 leukemia, 4.39 µM. Besides, the GI50 was 4.85 µM with HS 578T breast, 5.5 µM in the assay with NCI/ADR-RES ovarian, 6.81 µM in the assay on MDA-MB-231 breast and 5.62 µM in the assay with SNB-75 CNS. Also, the TGI was above 100 µM with NCI-H460 lung; 18.3 µM with A498 renal; 41.3 µM in the assay with OVCAR-4 ovarian; 41.3 µM in the assay on NCI-H522 lung; 35.8 µM with SK-MEL-5 melanoma; above 100 µM with MOLT-4 leukemia. Also, the TGI was found to be 20.2 µM with HS 578T breast, 54.1 µM in the assay with NCI/ADR-RES ovarian, 42.8 µM with MDA-MB-231 breast and 29.5 µM in the assay with SNB-75 CNS.
Turning to `COc1cc2nc(-c3ccc(Cl)cc3)cc(OCCCN3CCCC3)c2cc1OC`, the GI50 in the assay with NCI-H460 lung was 0.823 µM; in the assay with A498 renal it was 2.19 µM; in the assay on OVCAR-4 ovarian it was 3 µM; in the assay on NCI-H522 lung, 2.36 µM; in the assay on SK-MEL-5 melanoma, 0.961 µM; with MOLT-4 leukemia, 1.5 µM. Further, the GI50 with HS 578T breast is 1.89 µM; in the assay with NCI/ADR-RES ovarian, 0.683 µM; in the assay with MDA-MB-231 breast, 0.907 µM; in the assay with SNB-75 CNS it was 1.73 µM. Further, the TGI came out at 11.2 µM with NCI-H460 lung; 5.19 µM in the assay with A498 renal; 22.6 µM in the assay with OVCAR-4 ovarian; 8.89 µM in the assay on NCI-H522 lung; 2.16 µM with SK-MEL-5 melanoma; 3.47 µM in the assay with MOLT-4 leukemia. Also, the TGI was 6.68 µM with HS 578T breast, 11 µM in the assay with NCI/ADR-RES ovarian, 4.08 µM in the assay with MDA-MB-231 breast and 5.09 µM with SNB-75 CNS.
As for `COc1cc2oc(-c3ccc(O)cc3O)c(CC=C(C)C)c(=O)c2c(O)c1/C=C/C(C)C`, the TGI in the assay with NCI-H460 lung was 14.5 µM; in the assay on A498 renal, 5.12 µM; in the assay with OVCAR-4 ovarian, 8.44 µM; in the assay on NCI-H522 lung it was 12.1 µM; with SK-MEL-5 melanoma it was 3.06 µM; in the assay on MOLT-4 leukemia, 5.24 µM. The TGI in the assay with HS 578T breast amounted to 7.92 µM; in the assay with NCI/ADR-RES ovarian it was 8.24 µM; in the assay with MDA-MB-231 breast, 6.17 µM; in the assay with SNB-75 CNS, 9.04 µM.
